According to patent US20050069522A1, “Combination pharmaceutical agents as inhibitors of HCV replication” (priority 2002, published 2005):

The compounds below were run on HCV replicon (HCV 1b-377-neo replicon cells) (assay: HCV replicon cell line FRET assay). Conditions: Hepatitis C virus; HCV replicon cell line, FRET assay; read-out: Replicon Inhibition Range EC50.
Format: cell-based
O=C(Nc1ccc(C2S/C(=N\c3cccc(Cl)c3)N(Cc3ccco3)C2=O)cc1)[C@@H]1CCCN1C(=O)OCc1ccccc1 (some centres unmarked) [Compound 53] was tested, and the EC50 was 0.1 to 1 µM.
Work on C[C@H](NC(=O)OCc1ccccc1)C(=O)Nc1ccc(C2S/C(=N\c3cccc(Cl)c3)N(Cc3ccco3)C2=O)cc1 (some centres unmarked) [Compound 54] yielded an EC50 of 0.1 to 1 µM.
O=C(Nc1ccc(C2S/C(=N\c3cccc(OC(F)(F)F)c3)N(Cc3ccco3)C2=O)cc1)[C@@H]1CCCN1C(=O)OCc1ccccc1 (some centres unmarked) [Compound 55] gave an EC50 of 0.1 to 1 µM.
Work on C[C@H](NC(=O)OCc1ccccc1)C(=O)Nc1ccc(C2S/C(=N\c3cccc(OC(F)(F)F)c3)N(Cc3ccco3)C2=O)cc1 (some centres unmarked) [Compound 56] yielded an EC50 of 0.1 to 1 µM.
Cc1cc(F)ccc1/N=C1\SC(c2ccc(NC(=O)[C@@H]3CCCN3C(=O)OCc3ccccc3)cc2)C(=O)N1Cc1ccco1 (some centres unmarked) [Compound 57] was tested, and the EC50 was 1 to 5 µM.
Cc1cc(F)ccc1/N=C1\SC(c2ccc(NC(=O)[C@H](C)NC(=O)OCc3ccccc3)cc2)C(=O)N1Cc1ccco1 (some centres unmarked) [Compound 58] showed an EC50 of 1 to 5 µM.
With O=C(Nc1ccc(C2S/C(=N\c3ccc(F)cc3Cl)N(Cc3ccco3)C2=O)cc1)[C@@H]1CCCN1C(=O)OCc1ccccc1 (some centres unmarked) [Compound 59] the EC50 was 1 to 5 µM.
Work on C[C@H](NC(=O)OCc1ccccc1)C(=O)Nc1ccc(C2S/C(=N\c3ccc(F)cc3Cl)N(Cc3ccco3)C2=O)cc1 (some centres unmarked) [Compound 60] yielded an EC50 of 1 to 5 µM.
C[C@H](NC(=O)OCc1ccccc1)C(=O)Nc1ccc(C2S/C(=N\c3ccc(C(F)(F)F)cc3)N(Cc3ccco3)C2=O)cc1 (some centres unmarked) [Compound 62] was tested, and the EC50 was 1 to 5 µM.
For O=C(Nc1ccc(C2S/C(=N\c3ccc4c(c3)OCCO4)N(Cc3ccco3)C2=O)cc1)[C@@H]1CCCN1C(=O)OCc1ccccc1 (some centres unmarked) [Compound 63], the EC50 was < 0.1 µM.
C[C@H](NC(=O)OCc1ccccc1)C(=O)Nc1ccc(C2S/C(=N\c3ccc4c(c3)OCCO4)N(Cc3ccco3)C2=O)cc1 (some centres unmarked) [Compound 64] was tested, and the EC50 was < 0.1 µM.
For COc1ccc(/N=C2\SC(c3ccc(NC(=O)[C@@H]4CCCN4C(=O)OCc4ccccc4)cc3)C(=O)N2Cc2ccco2)cc1F (some centres unmarked) [Compound 65], the EC50 was < 0.1 µM.
COc1ccc(/N=C2\SC(c3ccc(NC(=O)[C@H](C)NC(=O)OCc4ccccc4)cc3)C(=O)N2Cc2ccco2)cc1F (some centres unmarked) [Compound 66] was tested, and the EC50 was 0.1 to 1 µM.
For O=C(Nc1ccc(C2S/C(=N\c3ccc(F)c(C(F)(F)F)c3)N(Cc3ccco3)C2=O)cc1)[C@@H]1CCCN1C(=O)OCc1ccccc1 (some centres unmarked) [Compound 67], the EC50 was 1 to 5 µM.
Compound C[C@H](NC(=O)OCc1ccccc1)C(=O)Nc1ccc(C2S/C(=N\c3ccc(F)c(C(F)(F)F)c3)N(Cc3ccco3)C2=O)cc1 (some centres unmarked) [Compound 68] has an EC50 of 1 to 5 µM.
Cc1cnc(CN2C(=O)C(c3ccc(NC(=O)[C@H](C)NC(=O)OCc4ccccc4)cc3)S/C2=N\c2ccc(N3CCOCC3)cc2)cn1 (some centres unmarked) [Compound 69] was tested, and the EC50 was < 0.1 µM.
In the case of Cc1cnc(CN2C(=O)C(c3ccc(NC(=O)[C@@H]4CCCN4C(=O)OCc4ccccc4)cc3)S/C2=N\c2ccc(N3CCOCC3)cc2)cn1 (some centres unmarked) [Compound 70], the EC50 is reported as < 0.1 µM.
For Cc1cnc(CN2C(=O)C(c3ccc(NC(=O)[C@@H]4CCC(=O)N4C(=O)OCc4ccccc4)cc3)S/C2=N\c2ccc(N3CCOCC3)cc2)cn1 (some centres unmarked) [Compound 71], the EC50 was < 0.1 µM.
C[C@H](NC(=O)OCc1ccccc1)C(=O)Nc1ccc(C2S/C(=N\c3ccc(N4CCOCC4)cc3)N(Cc3ccccn3)C2=O)cc1 (some centres unmarked) [Compound 72] was tested, and the EC50 was < 0.1 µM.
For O=C(Nc1ccc(C2S/C(=N\c3ccc(N4CCOCC4)cc3)N(Cc3ccccn3)C2=O)cc1)[C@@H]1CCCN1C(=O)OCc1ccccc1 (some centres unmarked) [Compound 73], the EC50 was < 0.1 µM.
C[C@@H](C(=O)Nc1ccc(C2S/C(=N\c3ccc(N4CCOCC4)cc3)N(Cc3ccccn3)C2=O)cc1)N(C)C(=O)OCc1ccccc1 (some centres unmarked) [Compound 74] showed an EC50 of 0.1 to 1 µM.
In the case of C[C@H](NC(=O)OCc1ccccc1)C(=O)Nc1ccc(C2S/C(=N\c3cccnc3)N(Cc3cccc(F)c3)C2=O)cc1 (some centres unmarked) [Compound 76], the EC50 is reported as < 0.1 µM.
O=C(Nc1ccc(C2S/C(=N\c3cccnc3)N(Cc3cccc(F)c3)C2=O)cc1)[C@@H]1CCCN1C(=O)OCc1ccccc1 (some centres unmarked) [Compound 77] was tested, and the EC50 was < 0.1 µM.
O=C(Nc1ccc(C2S/C(=N\c3ccc(N4CCOCC4)cc3)N(Cc3ccccn3)C2=O)cc1)[C@@H]1C[C@@H](O)CN1C(=O)OCc1ccccc1 (some centres unmarked) [Compound 78] showed an EC50 of 0.1 to 1 µM.
CC(C)(C)O[C@@H]1C[C@@H](C(=O)Nc2ccc(C3S/C(=N\c4ccc(N5CCOCC5)cc4)N(Cc4ccccn4)C3=O)cc2)N(C(=O)OCc2ccccc2)C1 (some centres unmarked) [Compound 79] was tested, and the EC50 was 1 to 5 µM.
C[C@H](NC(=O)OCc1ccccc1)C(=O)Nc1ccc(C2S/C(=N\c3ccc(N4CCOCC4)cc3)N(Cc3cccnc3)C2=O)cc1 (some centres unmarked) [Compound 80] showed an EC50 of 0.1 to 1 µM.
For C[C@H](NC(=O)OCc1ccccc1)C(=O)Nc1ccc(C2S/C(=N\c3ccc(N4CCOCC4)cc3)N(Cc3ccncc3)C2=O)cc1 (some centres unmarked) [Compound 82], the EC50 was < 0.1 µM.
With O=C(Nc1ccc(C2S/C(=N\c3ccc(N4CCOCC4)cc3)N(Cc3ccncc3)C2=O)cc1)[C@@H]1CCCN1C(=O)OCc1ccccc1 (some centres unmarked) [Compound 83] the EC50 was < 0.1 µM.
With CN=C1SC(c2ccc(NC(=O)[C@H](C)NC(=O)OCc3ccccc3)cc2)C(=O)N1Cc1ccccn1 (some centres unmarked) [Compound 84] the EC50 was 0.1 to 1 µM.
In the case of CN=C1SC(c2ccc(NC(=O)[C@@H]3CCCN3C(=O)OCc3ccccc3)cc2)C(=O)N1Cc1ccccn1 (some centres unmarked) [Compound 85], the EC50 is reported as < 0.1 µM.
For C[C@H](NC(=O)OCc1ccccc1)C(=O)Nc1ccc(C2S/C(=N\Cc3ccccn3)N(C)C2=O)cc1 (some centres unmarked) [Compound 86], the EC50 was 1 to 5 µM.
CN1C(=O)C(c2ccc(NC(=O)[C@@H]3CCCN3C(=O)OCc3ccccc3)cc2)S/C1=N\Cc1ccccn1 (some centres unmarked) [Compound 87] was tested, and the EC50 was 0.1 to 1 µM.
In the case of O=C(Nc1ccc(C2S/C(=N\c3ccc(N4CCOCC4)cc3)N(Cc3ccccn3)C2=O)cc1)[C@@H]1CCC(=O)N1C(=O)OCc1ccccc1 (some centres unmarked) [Compound 88], the EC50 is reported as < 0.1 µM.
CC(C)(C)/N=C1\SC(c2ccc(NC(=O)[C@@H]3CCCN3C(=O)OCc3ccccc3)cc2)C(=O)N1Cc1ccccn1 (some centres unmarked) [Compound 89] showed an EC50 of 0.1 to 1 µM.
For CCOC(=O)/N=C1\SC(c2ccc(NC(=O)[C@@H]3CCCN3C(=O)OCc3ccccc3)cc2)C(=O)N1Cc1ccccn1 (some centres unmarked) [Compound 91], the EC50 was < 0.1 µM.
For CCOC(=O)/N=C1\SC(c2ccc(NC(=O)[C@H](C)NC(=O)OCc3ccccc3)cc2)C(=O)N1Cc1cccnc1 (some centres unmarked) [Compound 92], the EC50 was < 0.1 µM.
O=C(Nc1ccc(C2S/C(=N\c3ccc(N4CCOCC4)cc3)N(c3ccccn3)C2=O)cc1)[C@@H]1CCCN1C(=O)OCc1ccccc1 (some centres unmarked) [Compound 94] was tested, and the EC50 was < 0.1 µM.
Cc1cnc(CN2C(=O)C(c3ccc(NC(=O)[C@@H]4CCCN4C(=O)Cc4ccccc4)cc3)S/C2=N\c2ccc(N3CCOCC3)cc2)cn1 (some centres unmarked) [Compound 95] was tested, and the EC50 was < 0.1 µM.
For C[C@H](NC(=O)Cc1ccccc1)C(=O)Nc1ccc(C2S/C(=N\c3cccc(F)c3)N(Cc3ccccn3)C2=O)cc1 (some centres unmarked) [Compound 96], the EC50 was < 0.1 µM.
O=C(Nc1ccc(C2S/C(=N\c3cccc(F)c3)N(Cc3ccccn3)C2=O)cc1)[C@@H]1CCCN1C(=O)Cc1ccccc1 (some centres unmarked) [Compound 97] was tested, and the EC50 was < 0.1 µM.
In the case of O=C(Nc1ccc(C2S/C(=N\c3ccc(N4CCOCC4)cc3)N(Cc3ccccn3)C2=O)cc1)[C@@H]1CCCN1C(=O)Cc1ccccc1 (some centres unmarked) [Compound 98], the EC50 is reported as < 0.1 µM.
For C[C@H](NC(=O)Cc1ccccc1)C(=O)Nc1ccc(C2S/C(=N\c3ccc(N4CCOCC4)cc3)N(Cc3ccccn3)C2=O)cc1 (some centres unmarked) [Compound 99], the EC50 was < 0.1 µM.
With O=C(Nc1ccc(C2S/C(=N\c3cccnc3)N(Cc3cccc(F)c3)C2=O)cc1)[C@@H]1CCCN1C(=O)Cc1ccccc1 (some centres unmarked) [Compound 100] the EC50 was < 0.1 µM.
For C/N=C1\SC(c2ccc(NC(=O)[C@@H]3CCCN3C(=O)Cc3ccccc3)cc2)C(=O)N1Cc1ccccn1 (some centres unmarked) [Compound 101], the EC50 was < 0.1 µM.
CC(C)/N=C1\SC(c2ccc(NC(=O)[C@H](C)NC(=O)Cc3ccccc3)cc2)C(=O)N1Cc1ccccn1 (some centres unmarked) [Compound 102] was tested, and the EC50 was < 0.1 µM.
With CN(C)c1ccc(CC(=O)N2CCC[C@H]2C(=O)Nc2ccc(C3S/C(=N\c4ccc(N5CCOCC5)cc4)N(Cc4ccccn4)C3=O)cc2)cc1 (some centres unmarked) [Compound 103] the EC50 was 0.1 to 1 µM.
With O=C(Nc1ccc(C2S/C(=N\c3ccc(N4CCOCC4)cc3)N(Cc3ccccn3)C2=O)cc1)[C@@H]1CCCN1C(=O)Cc1c(Cl)cccc1Cl (some centres unmarked) [Compound 104] the EC50 was < 0.1 µM.
O=C(Nc1ccc(C2S/C(=N\c3ccc(N4CCOCC4)cc3)N(Cc3ccccn3)C2=O)cc1)[C@@H]1CCCN1C(=O)C1(c2ccc(F)cc2)CCCC1 (some centres unmarked) [Compound 105] gave an EC50 of 0.1 to 1 µM.
Work on COc1ccc(CC(=O)N2CCC[C@H]2C(=O)Nc2ccc(C3S/C(=N\c4ccc(N5CCOCC5)cc4)N(Cc4ccccn4)C3=O)cc2)cc1 (some centres unmarked) [Compound 106] yielded an EC50 of 0.1 to 1 µM.
O=C(Nc1ccc(C2S/C(=N\c3ccc(N4CCOCC4)cc3)N(Cc3ccccn3)C2=O)cc1)[C@@H]1CCCN1C(=O)C(c1ccccc1)c1ccccc1 (some centres unmarked) [Compound 107] was tested, and the EC50 was < 0.1 µM.
In the case of O=C(Nc1ccc(C2S/C(=N\c3ccc(N4CCOCC4)cc3)N(Cc3ccccn3)C2=O)cc1)[C@@H]1CCCN1C(=O)Cc1ccccc1Cl (some centres unmarked) [Compound 108], the EC50 is reported as < 0.1 µM.
O=C(Nc1ccc(C2S/C(=N\c3ccc(N4CCOCC4)cc3)N(Cc3ccccn3)C2=O)cc1)[C@@H]1CCCN1C(=O)Cc1ccc(C(F)(F)F)cc1 (some centres unmarked) [Compound 109] showed an EC50 of 1 to 5 µM.
In the case of O=C(Nc1ccc(C2S/C(=N\c3ccc(N4CCOCC4)cc3)N(Cc3ccccn3)C2=O)cc1)[C@@H]1CCCN1C(=O)C(F)c1ccccc1 (some centres unmarked) [Compound 110], the EC50 is reported as < 0.1 µM.
With C/N=C1\SC(c2ccc(NC(=O)[C@H](C)NC(=O)C(c3ccccc3)c3ccccc3)cc2)C(=O)N1Cc1ccccn1 (some centres unmarked) [Compound 111] the EC50 was < 0.1 µM.
C[C@H](NC(=O)C(c1ccccc1)c1ccccc1)C(=O)Nc1ccc(C2S/C(=N\c3ccc(N4CCOCC4)cc3)N(Cc3ccccn3)C2=O)cc1 (some centres unmarked) [Compound 112] was tested, and the EC50 was < 0.1 µM.
With O=C(Nc1ccc(C2S/C(=N\c3ccc(N4CCOCC4)cc3)N(Cc3ccccn3)C2=O)cc1)[C@@H]1CCC(=O)N1C(=O)C(c1ccccc1)c1ccccc1 (some centres unmarked) [Compound 113] the EC50 was 0.1 to 1 µM.
In the case of C[C@H](C(=O)N1CCC[C@H]1C(=O)Nc1ccc(C2S/C(=N\c3ccc(N4CCOCC4)cc3)N(Cc3ccccn3)C2=O)cc1)c1ccccc1 (some centres unmarked) [Compound 114], the EC50 is reported as < 0.1 µM.
C[C@@H](C(=O)N1CCC[C@H]1C(=O)Nc1ccc(C2S/C(=N\c3ccc(N4CCOCC4)cc3)N(Cc3ccccn3)C2=O)cc1)c1ccccc1 (some centres unmarked) [Compound 115] was tested, and the EC50 was < 0.1 µM.
For CO[C@@H](C(=O)N1CCC[C@H]1C(=O)Nc1ccc(C2S/C(=N\c3ccc(N4CCOCC4)cc3)N(Cc3ccccn3)C2=O)cc1)c1ccccc1 (some centres unmarked) [Compound 116], the EC50 was < 0.1 µM.
